How the values were obtained:
[1] = tested on: CHO-EBNA1c (clone 3E7) cells; assay: Effect of PKB (AKT) and valproic acid on transient gene expression (SEAP); format: cell-based, Chinese Hamster; details: 0.25 mM VPA added 24 hours post-transfection; days 5 to 8 post-transfection
Description: (§1) Secreted alkaline phosphatase activity determination: SEAP activity is measured as previously described using the colorimetric substrate paranitrophenyl phosphate (Durocher et al, 2000).
Referring to FIG. 10, the effect of PKB (AKT) and valproic acid (VPA) on transient gene expression in CHO-EBNA1c (clone 3E7) cells is illustrated. The CHO-EBNA1c cells were transfected with a mixture of SEAP-encoding oriP plasmids (pTT-SEAP) and stuffer DNA or pTT-AKTdd vector (AKTdd is a dominant-positive mutant of AKT). In some cases, 0.25 mM VPA was added 24 hours post-transfection. SEAP activity (ΔA410/min) was measured at days 5 to 8 post-transfection.

[2] = tested on: CHO-EBNA1c (clone 3E7) cells; assay: Effect of FGF2 co-expression on transient SEAP expression in CHO-EBNA1c cells; format: cell-based, Chinese Hamster; details: 25% pTT-SEAP, 0-70% FGF2 plasmid; 7 days post-transfection
Description: as §1
(§2) Referring to FIG. 9, graphs are shown illustrating the effect of FGF2 (bFGF) co-expression on transient gene expression in HEK293-EBNA1t (clone 6E) cells (upper panel) and CHO-EBNA1c (clone 3E7) cells (lower panel). The HEK293-EBNA1t and CHO-EBNA1c cells were transfected with 25% pTT-SEAP vector and increasing amounts (0%, 15%, 30%, 45%, 60% and 70%) of FGF2-encoding pTT plasmid (the overall content of DNA was kept constant with non-coding stDNA). SEAP activity (OD/min at 410 nm) was measured in the supernatant 7 days post-transfection. From the upper panel it is evident that SEAP activity in HEK293-EBNA1t cells is decreased by co-expression of FGF2. From the lower panel it is evident that SEAP activity in CHO-EBNA1c cells is increased by co-expression of FGF2. […] Increased productivity in CHO cells may be due to a FGF-induced rRNA synthesis.

[3] = tested on: HEK293-EBNA1t (clone 6E) cells; assay: Effect of FGF2 co-expression on transient SEAP expression in HEK293-EBNA1t cells; format: cell-based, human; details: 25% pTT-SEAP, 0-70% FGF2 plasmid; 7 days post-transfection
Description: as §1, §2

Compound	effect on transient gene expression (SEAP activity) [1]	SEAP activity on co-expression of FGF2 [2]	SEAP activity on co-expression of FGF2 [3]
CCCC(CCC)C(=O)O [valproic acid]	increases transient gene expression	–	–
FGF2	–	increased	decreased

Reference: patent publication US9353382B2, “Process, vectors and engineered cell lines for enhanced large-scale transfection” (National Research Council of Canada, priority 2008, dated 2016)
